Experimental data from publication PMC10799709, “Characterization of a New Immunosuppressive and Antimicrobial Peptide, DRS-DA2, Isolated from the Mexican Frog, Pachymedusa dacnicolor” (International Journal of Inflammation, 2024).
Peptide text beside a SMILES is read from it.

What was measured:
Human erythrocytes = assay: Hemolytic test, human erythrocytes; assay type: cell-based; conditions: human erythrocytes in PBS, 1 h, 37°C, absorbance 550 nm; no death at 10 µM; 3 independent experiments in triplicate
Description: (§1) Blood from a mouse or healthy adult donor was centrifuged at 800 × g for 10 minutes at 4°C. The pellet containing red blood cells was then washed three times in 10 volumes of PBS and was diluted in 4% (v/v) in PBS. Blood and peptides at different concentrations were then incubated at 37°C for one hour. Cells were centrifuged 1500 × g for 5 minutes at room temperature. Hemolysis was measured in the supernatant at 550 nm. Red blood cells lysed with 1% Triton X-100 was used as a control, achieving 100% hemolysis. Percent hemolysis was calculated using the following formula: % hemolysis = 100% × [(A − A0)/(At − A0)], where A represents the absorbance of the peptide sample at 550 nm and A0 and At represent 0% and 100% hemolysis determined in 10 mM PBS and 0.1% Triton X-100, respectively.

Mouse erythrocytes = assay: Hemolytic test, mouse erythrocytes; assay type: cell-based; conditions: mouse erythrocytes in PBS, 1 h, absorbance 550 nm; no death at 10 µM; 3 independent experiments in triplicate
Description: as §1

[1] = system: Human primary epithelial cells; assay: Cytotoxic assay on human primary epithelial cells; assay type: cell-based; conditions: 2 h, 37°C, flow cytometry, no death at 10 µM
Source text: (§2) Human leukocytes were provided by the « Banco de Sangre del Hospital Regional del IMSS » and the Centro Estatal de la Transfusión Sanguínea in Cuernavaca, Morelos, Mexico. Institutional committees approved the acquisition and isolation of human peripheral blood leukocytes. Human leukocytes and erythrocytes were obtained as previously described. Mouse bone marrow cells (MBMCs) and erythrocytes were obtained from C57BL/6 or Balb/c mice. Mouse epithelial cells were isolated from C57Bl/6 mice, and human epithelial cells were recovered from surgery residues. In brief, intestinal tissues were minced and digested in 450-U/mL collagenase I, 125-U/mL collagenase XI, 60-U/mL hyaluronidase, and 60-U/mL DNAse for 1 hour before gradient density centrifugation on Histopaque-1083 (Sigma-Aldrich, St. Louis, MO). […]
(§3) 5.10^5 mouse or human leukocytes or primary epithelial cells, A549 or Jurkat E6-1 cells, were incubated in 100 µl RPMI or DMEM containing 0.5% BSA and […] with the peptides at different concentrations for 2 hours at 37°C, 5% CO2. […] Viability of leukocytes and Jurkat cells was determined by adding a viability dye (eFluor 780) and counted by FacsCanto flow cytometry with a predetermined number of beads (Polybead, Carboxylate Microspheres, Polysciences, Inc., Le Perray-en-Yvelines, France) added to the samples. […] Data were analyzed with FlowJo.

[2] = system: Mouse primary epithelial cells; assay: Cytotoxic assay on mouse primary epithelial cells; assay type: cell-based; conditions: 2 h, 37°C, flow cytometry, no death at 10 µM
Source text: as §2, §3

A549 cells = assay: A549 viability, CCK8 assay; assay type: cell-based, human; conditions: A549, 1 h, 37°C, duplicate, no death at 10 µM
Source text: Human leukocytes were provided by the « Banco de Sangre del Hospital Regional del IMSS » and the Centro Estatal de la Transfusión Sanguínea in Cuernavaca, Morelos, Mexico. Institutional committees approved the acquisition and isolation of human peripheral blood leukocytes. Human leukocytes and erythrocytes were obtained as previously described. Mouse bone marrow cells (MBMCs) and erythrocytes were obtained from C57BL/6 or Balb/c mice. Mouse epithelial cells were isolated from C57Bl/6 mice, and human epithelial cells were recovered from surgery residues. In brief, intestinal tissues were minced and digested in 450-U/mL collagenase I, 125-U/mL collagenase XI, 60-U/mL hyaluronidase, and 60-U/mL DNAse for 1 hour before gradient density centrifugation on Histopaque-1083 (Sigma-Aldrich, St. Louis, MO). A549 cells (ATCC CCL-185), a human lung carcinoma cell line, were cultivated at 37°C in a humid atmosphere and 5% CO2, with DMEM advanced medium (Gibco®) supplemented with 5% of fetal bovine serum (FBS), 2 mM of glutamine, 100 U of penicillin, and 50 μg/mL of streptomycin (Gibco®). Jurkat E6-1 cells were cultured in an RPMI medium supplemented with 5% fetal bovine serum.
For the cell line A549, viability was assessed by the CCK8 assay (DoJindo) as indicated by the manufacturer. […] The absorbance at 450 nm was measured after 3 h incubation.

[3] = In vitro peptide stability in rat serum, RP-HPLC; assay type: in vitro ADME; conditions: 37°C, 300 µM peptide; for degradation of the peptide: RPMI with 25% (v/v) rat serum
Description: (§4) One mL of RPMI supplemented with 25% (v/v) rat serum was equilibrated at 37°C for 15 min before adding the peptide (final concentration of 300 µM). At different time points, 300 µL of the reaction solution was removed and completed to 600 µL with 96% ethanol. The sample was cooled at 4°C for 15 min and then spun to precipitate serum proteins. The supernatant was recovered and submitted to the viability assay as described in the cytotoxic assay section or analyzed by RP-HPLC on C18–300 100 × 4, 6 mm. A linear gradient from 100% buffer A (0.1% TFA in H20) to 60% of buffer B (0.1% TFA in ACN) was used over 10 min with a flow rate of 1 mL/min. The absorbance was detected at both 220 nm and 280 nm.

mouse bone marrow cells = assay: Cytotoxic activity of peptide recovered after serum incubation; assay type: cell-based; conditions: then 5 µM on mouse bone marrow cells for 2 h
Description: 5.10^5 mouse or human leukocytes or primary epithelial cells, A549 or Jurkat E6-1 cells, were incubated in 100 µl RPMI or DMEM containing 0.5% BSA and […] with the peptides at different concentrations for 2 hours at 37°C, 5% CO2. Incubation of the cells with DMSO 30% was used as a positive control. For the kinetic assay, the cells were incubated with the peptides for different time periods. Viability of leukocytes and Jurkat cells was determined by adding a viability dye (eFluor 780) and counted by FacsCanto flow cytometry with a predetermined number of beads (Polybead, Carboxylate Microspheres, Polysciences, Inc., Le Perray-en-Yvelines, France) added to the samples. Mouse leukocytes were stained with anti-mouse Ly6G-PE, anti-mouse NK1.1-PE, anti-mouse CD11b-PerCP, and anti-mouse F4/80-APC (BD Biosciences, Rungis, France). Human leukocytes were stained with anti-human CD45-PB, anti-human CD16-PE-Cy7, anti-human CD56-PE-Cy7, anti-human CD14-FITC, anti-human CD3V500, anti-human CD8-APC, and anti-human CD4-PE. Data were analyzed with FlowJo.
as §4

SMILES | toxicity for erythrocytes (hemolysis) (Human erythrocytes) | toxicity for erythrocytes (hemolysis) (Mouse erythrocytes) | toxicity for primary epithelial cells [1] | toxicity for primary epithelial cells [2] | toxicity for A549 cells (A549 cells) | time of resistance to enzymatic degradation ([3]; rat serum, title of Figure 7) [min] | Trp λmax in aqueous buffer [nm] | degradation of the peptide ([3]; 24 h, RP-HPLC, UV 220 nm) | degradation of the peptide ([3]; after 30 min, RP-HPLC C18, UV 220 nm, intact peak area vs sum of all peptide areas, n = 3 independent experiments) [%] | percentage of dead cells versus t0 peptide (mouse bone marrow cells; peptide (300 µM) pre-incubated with serum 15 min (t15), flow cytometry) | percentage of dead cells versus t0 peptide (mouse bone marrow cells; peptide pre-incubated with serum 30 min (t30)) | induction of cell death (mouse bone marrow cells; peptide pre-incubated with serum 24 h (t24))
CSCC[C@H](NC(=O)[C@H](CC(N)=O)NC(=O)[C@@H](NC(=O)[C@@H](NC(=O)[C@H](C)NC(=O)[C@H](CC(N)=O)NC(=O)[C@H](CC(C)C)NC(=O)[C@@H](NC(=O)[C@H](C)NC(=O)[C@H](CCCCN)NC(=O)CNC(=O)[C@H](C)NC(=O)[C@@H](NC(=O)[C@H](CCCCN)NC(=O)CNC(=O)[C@@H](NC(=O)[C@H](CCCCN)NC(=O)[C@H](CCCCN)NC(=O)[C@H](CC(C)C)NC(=O)[C@H](CC(C)C)NC(=O)[C@@H](NC(=O)[C@H](CCCCN)NC(=O)[C@H](Cc1c[nH]c2ccccc12)NC(=O)[C@H](CC(C)C)NC(=O)[C@H](C)N)[C@@H](C)O)C(C)C)C(C)C)C(C)C)C(C)C)[C@@H](C)O)C(=O)N[C@@H](C)C(=O)N[C@@H](CC(N)=O)C(=O)N[C@@H](CCC(N)=O)C(=O)N[C@@H](CC(N)=O)C(=O)N[C@@H](CCC(=O)O)C(=O)N[C@@H](CCC(N)=O)C(=O)O [DRS-DA2NEQ] (H-ALWKTLLKKVGKVAGKAVLNAVTNMANQNEQ-OH) | not toxic | not toxic | not toxic | not toxic | not toxic | 15 | 355 | – | – | – | – | –
CSCC[C@H](NC(=O)[C@H](CC(N)=O)NC(=O)[C@@H](NC(=O)[C@@H](NC(=O)[C@H](C)NC(=O)[C@H](CC(N)=O)NC(=O)[C@H](CC(C)C)NC(=O)[C@@H](NC(=O)[C@H](C)NC(=O)[C@H](CCCCN)NC(=O)CNC(=O)[C@H](C)NC(=O)[C@@H](NC(=O)[C@H](CCCCN)NC(=O)CNC(=O)[C@@H](NC(=O)[C@H](CCCCN)NC(=O)[C@H](CCCCN)NC(=O)[C@H](CC(C)C)NC(=O)[C@H](CC(C)C)NC(=O)[C@@H](NC(=O)[C@H](CCCCN)NC(=O)[C@H](Cc1c[nH]c2ccccc12)NC(=O)[C@H](CC(C)C)NC(=O)[C@H](C)N)[C@@H](C)O)C(C)C)C(C)C)C(C)C)C(C)C)[C@@H](C)O)C(=O)N[C@@H](C)C(=O)N[C@@H](CC(N)=O)C(=O)N[C@@H](CCC(N)=O)C(=O)N[C@@H](CC(N)=O)C(=O)O [DRS-DA2N] (H-ALWKTLLKKVGKVAGKAVLNAVTNMANQN-OH) | not toxic | not toxic | not toxic | not toxic | not toxic | – | 355 | totally degraded | 40 | no significant differences | started to decrease | almost completely abolished
